The source of these data is US20210238169A1, “PROCESS FOR PREPARING A COMPOUND OF FORMULA (XIII)” (PULMOCIDE LIMITED, priority 2014, published 2021).

Assay [1] deals with Aspergillus fumigatus (TR34-L98H strain). The assay can be described thus: Aspergillus fumigatus invasion in human alveoli bilayers (transwells), GM in lower chamber. Type of assay: cell-based. The settings on record: Compound (I) 1 μg/mL upper chamber, Posaconazole 0.1 μg/mL lower chamber. On the procedure:
In vitro models of human alveoli, consisting of a bilayer of human alveolar epithelial cells and endothelial cells, were prepared as previously described (Hope et al., 2007). This system allows administration of a test compound to the upper (“air” space) and/or lower (“systemic” space) compartments. This flexibility has been exploited to explore the effects of combination treatments by dosing Compound (I) to the upper chamber and posaconazole or other anti-fungal agents to the lower chamber. Primary human pulmonary artery endothelial cells (HPAEC) were harvested and diluted to 10^6 cells/mL in EGM-2 media (Lonza, Basel, Switzerland). Transwells were inverted and the cell suspension (100 μL/well) was applied to the base of each transwell. The inverted transwells were incubated at RT within a flow hood for 2 hr after which they were turned upright. EGM-2 media was added to the lower (700 μL/well) and upper (100 μL/well) compartments and the transwells were incubated for 48 hr (37° C., 5% CO2). The EGM-2 media in the lower compartment was then replaced with fresh EGM-2 media. A549 cells were harvested and diluted to 5×10^5 cells/mL in 10% EBM, then added to the upper compartment (100 μL/well) of all transwells and the plates incubated for 72 hr (37° C., 5% CO2). Conidia of Aspergillus fumigatus (the itraconazole sensitive strain NCPF2010 and the itraconazole resistant strain TR34-L98H) were cultured separately in Sabouraud dextrose agar for 3 days. A stock conidia suspension of either strain was prepared from a Sabouraud dextrose agar culture by washing with PBS-tween (10 mL; PBS containing 0.05% Tween-20, 100 U/mL Penicillin and 100 U/mL Streptomycin). The conidia count was assessed using a Neubauer haemocytometer and adjusted to 10^6 conidia/mL with PBS. A working stock of conidia was prepared in EBM (conc of 10^5 conidia/mL) immediately prior to use.
Test and reference compounds (or neat DMSO as the vehicle) were added to the appropriate wells of 24-well plates (3 μL/well containing 600 μL of 2% FBS EBM) for lower compartment treatment and to 96-well plates (1 μL/well containing 200 μL of 2% FBS EBM) for the treatment of the upper compartment, to provide a final DMSO concentration of 0.5%. The media in the upper compartment was aspirated and that containing the appropriate test and reference compounds, or vehicle, were added (100 μL/well). Transwells were then transferred into the 24-well plate containing the test and reference compounds or DMSO vehicle. After incubation for 1 hr (35° C., 5% CO2) the conidia suspension (10 μL/well) was added to the upper compartment of each transwell. Plates were then incubated for 24 hr (35° C., 5% CO2). Supernatants from each compartment (5 μL/compartment) were collected and stored (−20° C.). Media was replaced daily after collection of the supernatants and all wells were treated with test and reference compounds or with DMSO, as described above, for 3 days. Samples continued to be collected until fungal growth was visible by eye in all transwells. The levels of GM in the supernatant in lower compartment were then measured by ELISA (BioRad, CA, USA) as an index of Aspergillus fumigatus invasion.

In assay [2] the test system is Aspergillus fumigatus (ATCC 13073). The assay can be described thus: Body weight loss of Aspergillus fumigatus infected, immunocompromised, neutropenic mice. The class given is in vivo. Conditions: 0.4 mg/mL intra-nasally, prophylactic; for Body weight loss caused by infection with A. fumigatus: % weight loss compared with day 0. On the procedure:
Aspergillus fumigatus (ATCC 13073 [strain: NIH 5233], American Type Culture Collection, Manassas, Va., USA) was grown on Malt agar (Nissui Pharmaceutical, Tokyo, Japan) plates for 6-7 days at RT (24±1° C.). Spores were aseptically dislodged from the agar plates and suspended in sterile distilled water with 0.05% Tween 80 and 0.1% agar. On the day of infection, spore counts were assessed by haemocytometer and the inoculum was adjusted to obtain a concentration of 1.67×10^8 spores mL^−1 of physiological saline.
On day 0, animals were infected with the spore suspension (35 μL intra-nasally).
Test compounds were administered intra-nasally (35 μL of a suspension of 0.08-2.00 mg/mL in physiological saline) once daily, 30 min before infection on day 0 and then on days 1, 2 and 3 (representing prophylactic treatment) or on days 1, 2 and 3 only (representing therapeutic treatment). For extended prophylactic treatment, test compounds (35 μL of a suspension of 0.0032 or 0.016 mg/mL in physiological saline) were administered intra-nasally once daily for seven days; then 30 min before infection on day 0, and thereafter, either on days 1, 2 and 3 after infection, or on day 0 only. The effects of these treatment paradigms were compared with those obtained when treatment was restricted to one day and 30 min before inoculation and then on days 1, 2 and 3 post infection; or reduced still further to one day and 30 min before infection only.

Turning to `Cc1cc(N2CCN(c3ccc(C(=O)Nc4ccc(F)cc4)cc3)CC2)ccc1OC[C@@H]1CO[C@@](Cn2cncn2)(c2ccc(F)cc2F)C1` [Compound (I), 4-(4-(4-(((3R,5R)-5-((1H-1,2,4-triazol-1-yl)methyl)-5-(2,4-difluorophenyl)tetrahydrofuran-3-yl)methoxy)-3-methylphenyl)piperazin-1-yl)-N-(4-fluorophenyl)benzamide], the “DFB50 (days taken to reach a fungal burden of 50% of control)” value in assay [1] worked out at 1.10 days. The “GM Levels in the Lower Chamber, OD value” in assay [1] (Treatment Day 0) was found to be 0 OD; in assay [1] (Treatment Day 1), 0.35 OD; in assay [1] (Treatment Day 2), 0.99 OD; in assay [1] (Treatment Day 3), 0.99 OD; in assay [1] (Treatment Day 4), 1.01 OD. The “% Inhibition of weight loss” value came out at 34% in assay [2] (Day 1), 39% in assay [2] (Day 2) and 42% in assay [2] (Day 3). In addition, the “Body weight loss caused by infection with A. fumigatus” value was determined as 6.1 ± 1.8% in assay [2] (Day 1), 8.7 ± 2.5% in assay [2] (Day 2) and 11.1 ± 5.6% in assay [2] (Day 3).

Regarding `CC[C@@H]([C@H](C)O)n1ncn(-c2ccc(N3CCN(c4ccc(OC[C@@H]5CO[C@@](Cn6cncn6)(c6ccc(F)cc6F)C5)cc4)CC3)cc2)c1=O` [Posaconazole], the “DFB50 (days taken to reach a fungal burden of 50% of control)” value in assay [1] turned out to be 1.64 days. Further, the “GM Levels in the Lower Chamber, OD value” in assay [1] (Treatment Day 0) came to 0 OD; in assay [1] (Treatment Day 1), 0.039 OD; in assay [1] (Treatment Day 2), 1.02 OD; in assay [1] (Treatment Day 3), 0.97 OD; in assay [1] (Treatment Day 4), 1.02 OD. For the same compound, the “GM Levels in the Lower Chamber, % inhibition vs. control” value in assay [1] (Treatment Day 1) is listed as 88%; in assay [1] (Treatment Day 2) it was −2.7%; in assay [1] (Treatment Day 3), 1.7%; in assay [1] (Treatment Day 4), −1.4%. Besides, the “% Inhibition of weight loss” value was 21% in assay [2] (Day 1), 6% in assay [2] (Day 2) and 6% in assay [2] (Day 3). For the same compound, the “Body weight loss caused by infection with A. fumigatus” value in assay [2] (Day 1) worked out at 7.3 ± 2.0%; in assay [2] (Day 2) it was 13.4 ± 1.9%; in assay [2] (Day 3), 18.1 ± 2.0%.
